The values that follow come from patent US20040092517A1, “Phenyl derivatives and their use in the treatment of thromboembolic disorders or tumours” (priority 2001, published 2004).

Counter-ions that a name gives are not always drawn.

The target in one test is factor Xa (Homo sapiens, UniProt P00742). Put plainly: Inhibition of factor Xa. Format: biochemical. An excerpt:
The inhibition of factor Xa by the compounds according to the invention and the measurement of the anticoagulant and antithrombotic activity can be determined by conventional in-vitro or in-vivo methods. A suitable method is described, for example, by J. Hauptmann et al. in Thrombosis and Haemostasis 1990, 63, 220-223.
The inhibition of factor Xa can be measured, for example, by the method of T. Hara et al. in Thromb. Haemostas. 1994, 71, 314-319.

The next test concerns the target T1, factor VIIa (Homo sapiens, UniProt P08709).
T1 sequence (P08709 213-466 limits assumed): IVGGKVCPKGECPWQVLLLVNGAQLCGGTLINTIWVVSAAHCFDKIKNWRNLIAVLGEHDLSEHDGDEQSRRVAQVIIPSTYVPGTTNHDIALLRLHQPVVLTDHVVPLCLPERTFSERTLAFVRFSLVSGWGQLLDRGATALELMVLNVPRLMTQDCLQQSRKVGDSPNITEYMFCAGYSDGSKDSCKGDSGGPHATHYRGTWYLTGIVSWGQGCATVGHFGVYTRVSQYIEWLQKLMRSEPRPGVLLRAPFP
T1 sequence (P08709 61-212 partner limits assumed): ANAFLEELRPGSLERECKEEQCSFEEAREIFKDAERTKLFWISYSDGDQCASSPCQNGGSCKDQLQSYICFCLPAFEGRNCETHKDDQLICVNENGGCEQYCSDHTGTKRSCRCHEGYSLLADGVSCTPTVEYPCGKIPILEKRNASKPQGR
As to the kind of experiment: Inhibition of factor VIIa. Format: biochemical. The text has this:
Coagulation factor VIIa initiates the extrinsic part of the coagulation cascade after binding to tissue factor and contributes to the activation of factor X to give factor Xa. Inhibition of factor VIIa thus prevents the formation of factor Xa and thus subsequent thrombin formation. The inhibition of factor VIIa by the compounds according to the invention and the measurement of the anticoagulant and antithrombotic activity can be determined by conventional in-vitro or in-vivo methods. A conventional method for the measurement of the inhibition of factor VIIa is described, for example, by H. F. Ronning et al. in Thrombosis Research 1996, 84, 73-81.

Sequence of factor Xa (P00742 235-488 limits assumed): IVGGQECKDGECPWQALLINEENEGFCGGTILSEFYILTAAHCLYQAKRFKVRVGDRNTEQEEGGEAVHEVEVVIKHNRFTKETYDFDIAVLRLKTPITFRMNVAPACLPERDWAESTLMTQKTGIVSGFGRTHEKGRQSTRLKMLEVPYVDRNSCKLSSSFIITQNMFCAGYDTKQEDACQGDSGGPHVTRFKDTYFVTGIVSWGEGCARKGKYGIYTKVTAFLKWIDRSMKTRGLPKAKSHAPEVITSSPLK
Sequence of factor Xa (P00742 41-179 partner limits assumed): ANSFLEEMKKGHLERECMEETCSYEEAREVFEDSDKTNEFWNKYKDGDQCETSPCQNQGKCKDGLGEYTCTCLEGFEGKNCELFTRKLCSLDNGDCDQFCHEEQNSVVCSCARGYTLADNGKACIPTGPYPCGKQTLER

As for `CS(=O)(=O)c1ccccc1-c1ccc(OC(C(=O)Nc2cccc(C(=N)N)c2)c2ccccc2)cc1` (stereo not drawn) [Example 1, N-(3-amidinophenyl)-2-(2′-methanesulfonylbiphenyl-4-oxyl)-2-phenylacetamide], the half-inhibitory concentration (IC50) (usually the midpoint of a concentration-inhibition curve) is 110 nM against factor Xa and 46 nM at factor VIIa.
Regarding `N=C(N)c1cccc(NC(=O)C(Nc2ccc(-c3ccccc3S(N)(=O)=O)cc2)c2ccccc2)c1` (stereo not drawn) [Example 5.6, N-(3-amidinophenyl)-2-(2′-aminosulfonylbiphenyl-4-amino)-2-phenylacetamide, trifluoroacetate], the results for the half-inhibitory concentration (IC50) against factor Xa and against factor VIIa were 20 nM and 13 nM, respectively.
`CC(C)(C)NS(=O)(=O)c1ccccc1-c1ccc(NC(C(=O)Nc2cccc(C(=N)N)c2)c2ccccc2)cc1` (stereo not drawn) [Example 5.5, N-(3-amidinophenyl)-2-(2′-tert-butylaminosulfonylbiphenyl-4-amino)-2-phenylacetamide]: the IC50 stood at 140 nM at factor Xa and 550 nM against factor VIIa.
